Assay results published in US20070160657A1, “Targeting and intestinal-absorption controlled liposome having sugar chain and therapeutic drug for cancer and diagnostic drug containing the liposome” (National Institute of Advanced Industrial Science, priority 2003, published 2007).

Columns and labels:
MRC5 cells = experiment: Cytotoxicity of doxorubicin HCl incorporated in liposome, WST-8, normal human cells; format: cell-based; conditions: read-out: 50% growth inhibition concentration (IC50), 72 hours
Procedure: (§1) KG-1a cells established from an acute myeloid leukemia patient were used as human leukemia cells. KG-1a cells were cultured in RPMI 1640 medium containing 10% fetal bovine serum (hereinafter FBS). MRC5 cells established from normal fibroblastic cells were used as normal human cells, and cultured in MEM medium containing 10% FBS. Cell suspensions were prepared from these cells at the concentration of 10^5 cells/ml and distributed to 96 well plates at 10^4 cells/well. After 24 hours, free doxorubicin HCl, which was not incorporated in liposome (hereinafter free Dox), doxorubicin HCl incorporated in liposome on which sugar was not bonded (hereinafter L-Dox) and doxorubicin HCl incorporated in liposome on which sialyl Lewis X tetrasaccharide was bonded (hereinafter L-Dox-SLX) were added to each well at appropriate concentrations. […] After removing the media containing the anticancer drug, replacing with 100 μl of RPMI 1640 or MEM containing 10% WST-8 and 10% FBS and incubating for 3 hours, the quantitation of cells were carried out by measuring absorbance at 485 nm (using the absorbance at 550 nm as a reference). Kiling activity (%)=100−(absorbance of the well of interest at 485 nm−absorbance of the same well at 550 nm)/(absorbance of the untreated well at 485 nm−absorbance of the untreated well at 550 nm)×100. […]

KG-1a cells = experiment: Cytotoxicity of doxorubicin HCl incorporated in liposome, WST-8, human leukemia cells; format: cell-based; conditions: read-out: 50% growth inhibition concentration (IC50); KG-1a human leukemia cells, 72 hours
Procedure: as §1

[1] = blood; tail vein; amount administered 1.4 mg/kg; mice with EAT cancer
Procedure: Ehrlich ascites tumor (EAT) cells (about 2×10^7 cells) were implanted subcutaneously into the right femoral region in male ddY mice (7 weeks of age), and the 50 mice were used in this test after the tumor tissues grew to 50 to 100 cubic mm (after 6 to 8 days).
These mice with cancer were separated into two groups, 25 mice per each group, and the mice in each group were injected with a liposome solution encapsulating having glycolipid type sugar chain and doxorubicin or free doxorubicin solution at a dose of 0.2 ml in tail vein after the tumor implant. Then, at various time intervals, the doxorubicin concentration was measured by fluorescent method (470 nm) in blood and tumor tissue of 5 mice from each group.

[2] = tested on: Collagen type II induced arthritis (CIA) model; experiment: Treatment of RA (CIA) mice by oral administration; format: in vivo, DBA/1J mouse; conditions: oral 3 times a week, Day 28 to 39; free Pred 100 μg (up to Day 32), liposomes 10 μg per administration
[3] = tested on: Collagen type II induced arthritis (CIA) model; experiment: Determination of suitable dose of predonisolone phosphate in RA (CIA) mice, intravenous; format: in vivo, DBA/1J mouse
[4] = tested on: Collagen type II induced arthritis (CIA) model; experiment: Treatment of RA (CIA) mice by intravenous administration; format: in vivo, DBA/1J mouse

| SMILES | IC50 (MRC5 cells) | IC50 (KG-1a cells) | AUC0→∞ [1] | Inflammatory Activity (IA), comparison between groups [2] | Inflammatory Activity (IA) versus Control ([3]; iv 250 μg per injection, 500 μg per week) | Inflammatory Activity (IA) versus Control ([3]; iv 500 μg per injection, 1000 μg per week) | Dose required to suppress the progression of inflammation ([3]; iv, more than 500 up to 1000 μg/week) | Inflammatory Activity (IA) ([4]; Day 37 and afterward, iv 100 μg per injection, twice a week) | Inflammatory Activity (IA), comparison between groups ([4]; iv twice a week, free Pred 100 μg, liposomes 10 μg per injection) |
| --- | --- | --- | --- | --- | --- | --- | --- | --- | --- |
| COc1cccc2c1C(=O)c1c(O)c3c(c(O)c1C2=O)C[C@@](O)(C(=O)CO)C[C@@H]3O[C@H]1C[C@H](N)[C@H](O)[C@H](C)O1.Cl [free Dox, doxorubicin HCl] | 8.4 µM | 0.18 µM | 130 ± 10 µg·h/mL |  |  |  |  |  |  |
| C[C@]12C=CC(=O)C=C1CC[C@@H]1[C@@H]2[C@@H](O)C[C@@]2(C)[C@H]1CC[C@]2(O)C(=O)COP(=O)(O)O [free Pred, predonisolone phosphate] |  |  |  | no significant difference in IA | No significant difference | no increase in IA was observed and the progression of inflammation was suppressed | > 500 μg/week | about 50% | no clear difference from the Control group in IA |
